The numbers were not newly measured in article PMC11187573, “Identification of SARS-CoV-2 Mpro inhibitors through deep reinforcement learning for de novo drug design and computational chemistry approaches” (RSC Medicinal Chemistry, 2024), which cites them from elsewhere.

In data set [1] the test system is SARS, SARS-CoV-2 and MERS Mpro. The conditions noted are these: cited from earlier work.
The subject of data set [2] is Mpro. The settings on record: ML dataset, cited from earlier work.
The mark [3] stands for this setting: Origin COVID_Moonshot, ref COVID Moonshot.

pIC50: −log10 of the molar value. Read-outs that look alike come from different tables or passages of the source.

For `CN(C)c1ccc(N(Cc2cccc(Cl)c2)C(=O)Cn2nnc3ccccc32)cc1` [ALP-POS-6d04362c-2, CN(C)c(cc1)ccc1N(Cc1cccc(Cl)c1)C(Cn1nnc2c1cccc2)=O, reference compound], the pIC50 (in general, the negative decadic logarithm of the IC50, by convention in mol/L) in data set [1] (setting [3]) was 6.30; in data set [2] (setting [3]), 6.35. Consider `O=C(Nc1cncc2ccccc12)C1CCCc2ccc(Cl)cc21` (centres unmarked) [ALP-POS-477dc5b7-1, O=C(C(CCC1)c2c1ccc(Cl)c2)Nc1cncc2ccccc12, reference compound], for which the results for the pIC50 in data set [1] (setting [3]) and in data set [2] (setting [3]) were 6.49 and 6.51, respectively. Regarding `O=C1N(Cc2cccc(Cl)c2)CCN1c1nccc2[nH]ncc12` [ALP-POS-91609ae9-3, O=C(N(Cc1cccc(Cl)c1)CC1)N1c1nccc2c1cn[nH]2, reference compound], the figures for the pIC50 in data set [1] (setting [3]) and in data set [2] (setting [3]) were 5.34 and 5.43, respectively. As to `CC(C)Nc1cccnc1N1CCN(C(=O)c2cc3cc(NS(C)(=O)=O)ccc3[nH]2)CC1` [CHEMBL929, CC(C)Nc1cccnc1N(CC1)CCN1C(c1cc(cc(cc2)NS(C)(=O)=O)c2[nH]1)=O, reference compound], the pIC50 in data set [1] (Origin ChEMBL, ref ChEMBL) was 5.40; in data set [2] (Origin ChEMBL, ref ChEMBL) it was 5.40. Turning to `Cc1c(-c2cnccn2)ssc1=S` [CHEMBL178459, CC1=C(c2nccnc2)SSC1=S, reference compound], the negative-log IC50 (pIC50) in data set [1] (Origin ChEMBL, ref ChEMBL) was 6.38; in data set [2] (Origin ChEMBL, ref ChEMBL) it was 6.38. Turning to `COc1nc2ccc(Br)cc2cc1[C@@H](c1ccccc1)[C@@](O)(CCN(C)C)c1cccc2ccccc12` [CHEMBL376488, CN(C)CC[C@]([C@H](c1ccccc1)c(cc(cc(cc1)Br)c1n1)c1OC)(c1cccc2ccccc12)O, reference compound], the negative logarithm of the IC50 (pIC50) in data set [1] (Origin ChEMBL, ref ChEMBL) was 5.36; in data set [2] (Origin ChEMBL, ref ChEMBL), 5.36. As for `CC(CN1CC(=O)NC(=O)C1)N1CC(=O)NC(=O)C1` (centres unmarked) [CHEMBL444186, CC(CN(CC(N1)=O)CC1=O)N(CC(N1)=O)CC1=O, reference compound], the pIC50 in data set [1] (Origin ChEMBL, ref ChEMBL) was 5.50; in data set [2] (Origin ChEMBL, ref ChEMBL), 5.50. Turning to `Nc1ccc(O)c2ncccc12` [CHEMBL449298, Nc(c1cccnc11)ccc1O, reference compound], the pIC50 is 5.69 in data set [1] (Origin ChEMBL, ref ChEMBL) and 5.69 in data set [2] (Origin ChEMBL, ref ChEMBL). As to `CN1CC[C@@]2(C)c3cc(O)ccc3N(C)[C@@H]12` [CHEMBL1256915, C[C@]12c(cc(cc3)O)c3N(C)[C@H]1N(C)CC2, reference compound], the pIC50 in data set [1] (Origin ChEMBL, ref ChEMBL) was 5.70; in data set [2] (Origin ChEMBL, ref ChEMBL) it was 5.70.

Turning to `COc1cc(C(=S)N2CCOCC2)ccc1O` [CHEMBL1380480, COc(cc(cc1)C(N2CCOCC2)=S)c1O, reference compound], the pIC50 is 5.88 in data set [1] (Origin ChEMBL, ref ChEMBL) and 5.88 in data set [2] (Origin ChEMBL, ref ChEMBL). `c1ccc2sc(SNC3CCCCC3)nc2c1` [CHEMBL1591074, C(CC1)CCC1NSc1nc(cccc2)c2s1, reference compound]: the pIC50 in data set [1] (Origin ChEMBL, ref ChEMBL) was 6.11; in data set [2] (Origin ChEMBL, ref ChEMBL), 6.11. In the case of `CC(C)c1cc(CNc2nc(Nc3cc(C4CC4)[nH]n3)cc(N3CCN(C)CC3)n2)on1` [CHEMBL3545085, CC(C)c1noc(CNc2nc(N3CCN(C)CC3)cc(Nc3n[nH]c(C4CC4)c3)n2)c1, reference compound], the pIC50 was 5.83 in data set [1] (Origin ChEMBL, ref ChEMBL) and 5.83 in data set [2] (Origin ChEMBL, ref ChEMBL).

On to `O=c1sn(-c2cccc3ccccc23)c(=O)n1Cc1ccccc1` [CHEMBL3545157, O=C(N1Cc2ccccc2)N(c2cccc3ccccc23)SC1=O, reference compound], for which the pIC50 in data set [1] (Origin ChEMBL, ref ChEMBL) is 6.94; in data set [2] (Origin ChEMBL, ref ChEMBL), 6.94. Consider `Cc1ccc(N(Cc2cccc(Cl)c2)C(=O)Cn2nnc3ccccc32)cc1` [CHO-MSK-00c5269a-1, Cc(cc1)ccc1N(Cc1cccc(Cl)c1)C(Cn1nnc2c1cccc2)=O, reference compound], for which the negative-log IC50 (pIC50) in data set [1] (setting [3]) was 5.63; in data set [2] (setting [3]) it was 5.55.

With `O=C(Nc1cncc2ccccc12)N(CCC1CCCCC1)c1cccc(Cl)c1` [EDJ-MED-c314995a-1, O=C(Nc1cncc2ccccc12)N(CCC1CCCCC1)c1cccc(Cl)c1, reference compound], the results for the pIC50 in data set [1] (setting [3]) and in data set [2] (setting [3]) were 6.58 and 6.21, respectively. `C[C@@H]1C[C@@H](C(=O)Nc2cncc3ccccc23)c2cc(Cl)ccc2O1` [EDJ-MED-e4b030d8-2, C[C@H](C[C@H]1C(Nc2cncc3ccccc23)=O)Oc(cc2)c1cc2Cl, reference compound]: the pIC50 in data set [1] (setting [3]) was 6.64; in data set [2] (setting [3]), 6.42. On to `COC(=O)c1c(C)n(S(C)(=O)=O)c2ccc(N(C(=O)c3ccco3)S(C)(=O)=O)cc12` [LON-WEI-4d77710c-11, Cc1c(C(OC)=O)c(cc(cc2)N(C(c3ccco3)=O)S(C)(=O)=O)c2n1S(C)(=O)=O, reference compound], for which the values for the pIC50 in data set [1] (setting [3]) and in data set [2] (setting [3]) were 6.03 and 6.20, respectively. Turning to `O=C(O)[C@@H](c1ccccc1)N1Cc2ccccc2C1=O` [LON-WEI-4d77710c-19, OC([C@@H](c1ccccc1)N(Cc1c2cccc1)C2=O)=O, reference compound], the pIC50 is 5.75 in data set [1] (setting [3]) and 5.83 in data set [2] (setting [3]).

As to `CCOC(=O)c1cc(-c2ccccc2)sc1NC(=O)Cc1csc(-c2ccccc2)n1` [LON-WEI-4d77710c-24, CCOC(c1c(NC(Cc2csc(-c3ccccc3)n2)=O)sc(-c2ccccc2)c1)=O, reference compound], the values for the negative-log IC50 (pIC50) in data set [1] (setting [3]) and in data set [2] (setting [3]) were 5.33 and 5.44, respectively. Turning to `N#Cc1ccc(CN2CCC(C3CCNC3)CC2)cc1` (centres unmarked) [LON-WEI-4d77710c-32, N#Cc1ccc(CN(CC2)CCC2C2CNCC2)cc1, reference compound], the negative-log IC50 (pIC50) was 5.69 in data set [1] (setting [3]) and 5.77 in data set [2] (setting [3]). With `O=S(=O)(Nc1ccccc1SCc1cccc(Cl)c1F)c1cc(Cl)sc1Cl` [LON-WEI-4d77710c-64, O=S(c(cc(s1)Cl)c1Cl)(Nc(cccc1)c1SCc1cccc(Cl)c1F)=O], the pIC50 in data set [1] (setting [3]) was 5.65. For `O=[N+]([O-])c1cnc(Sc2nnc(-c3ccc(Cl)cc3)o2)s1` [LON-WEI-4d77710c-67, [O-][N+](c1cnc(Sc2nnc(-c(cc3)ccc3Cl)o2)s1)=O], in data set [1] (setting [3]), the pIC50 was 6.06. For the compound `CCOC(=O)c1ccc(NC(=O)CC2SC(=O)N(c3ccccc3)C2=O)cc1` (centres unmarked) [LON-WEI-4d77710c-74, CCOC(c(cc1)ccc1NC(CC(C(N1c2ccccc2)=O)SC1=O)=O)=O], in data set [1] (setting [3]), the pIC50 was 5.62.

In the case of `Cc1ccccc1NC(=O)CC1SC(=O)N(c2ccccc2)C1=O` (centres unmarked) [LON-WEI-4d77710c-75, Cc(cccc1)c1NC(CC(C(N1c2ccccc2)=O)SC1=O)=O], the pIC50 in data set [1] (setting [3]) was 6.35. `O=C(CCl)N1CCN(S(=O)(=O)c2c(F)cccc2F)CC1` [LON-WEI-8f408cad-2, O=C(CCl)N(CC1)CCN1S(c(c(F)ccc1)c1F)(=O)=O]: in data set [1] (setting [3]), the pIC50 is 5.48.

`O=C(CCl)N1CCN(S(=O)(=O)c2cccs2)CC1` [LON-WEI-8f408cad-3, O=C(CCl)N(CC1)CCN1S(c1cccs1)(=O)=O]: the negative-log IC50 (pIC50) in data set [1] (setting [3]) was 5.67.

In the case of `O=C(CCl)N1CCN(Cc2ccsc2)CC1` [LON-WEI-8f408cad-7, O=C(CCl)N1CCN(Cc2cscc2)CC1], the pIC50 in data set [1] (setting [3]) is 5.46. As to `C=CC(=O)N(c1ccc(C(C)(C)C)cc1)C(C(=O)NCCc1cccc(F)c1)c1cccnc1` (centres unmarked) [LON-WEI-adc59df6-47, CC(C)(C)c(cc1)ccc1N(C(C(NCCc1cccc(F)c1)=O)c1cnccc1)C(C=C)=O], the pIC50 in data set [1] (setting [3]) was 5.53.

Consider `CS(=O)(=O)c1ncc(Cl)c(C(=O)Nc2ccccc2Cc2ccccc2)n1` [LON-WEI-ff7b210a-4, CS(c(nc1)nc(C(Nc2c(Cc3ccccc3)cccc2)=O)c1Cl)(=O)=O], for which, in data set [1] (setting [3]), the pIC50 is 6.30.

For the compound `CCOC(=O)c1nc(S(C)(=O)=O)ncc1Cl` [LON-WEI-ff7b210a-5, CCOC(c(nc(nc1)S(C)(=O)=O)c1Cl)=O], the pIC50 in data set [1] (setting [3]) is 5.80. With `O=C(CCl)N1CCN(S(=O)(=O)C2=CC[SH]=C2)CC1` [MAK-UNK-d4768348-1, O=C(CCl)N(CC1)CCN1S(C1=CCS=C1)(=O)=O], the pIC50 in data set [1] (setting [3]) is 5.79.

Turning to `COc1ccc(C2CC(c3cccs3)=NN2C(=O)CCl)cc1OC` (centres unmarked) [MAT-POS-916a2c5a-1, COc(ccc(C(C1)N(C(CCl)=O)N=C1c1cccs1)c1)c1OC], the pIC50 in data set [1] (setting [3]) is 5.73. Take `O=C(CCl)N1CCN(Cc2cccc(Cl)c2)CC1` [MED-COV-4280ac29-15, O=C(CCl)N1CCN(Cc2cccc(Cl)c2)CC1]: the pIC50 in data set [1] (setting [3]) is 5.55. For the compound `COc1ccc(C2CC(c3ccccc3)=NN2C(=O)CCl)cc1OC` (centres unmarked) [MED-COV-4280ac29-30, COc(ccc(C(C1)N(C(CCl)=O)N=C1c1ccccc1)c1)c1OC], the pIC50 in data set [1] (setting [3]) was 6.27. Consider `COCc1cc(Cl)cc(CN2CCN(C(=O)CCl)CC2)c1` [MED-COV-4280ac29-33, COCc1cc(CN(CC2)CCN2C(CCl)=O)cc(Cl)c1], for which, in data set [1] (setting [3]), the negative logarithm of the IC50 (pIC50) was 5.32. For the compound `COCCc1ccc(Cl)cc1CN1CCN(C(=O)CCl)CC1` [MED-COV-4280ac29-37, COCCc(cc1)c(CN(CC2)CCN2C(CCl)=O)cc1Cl], the pIC50 in data set [1] (setting [3]) was 5.66. With `NS(=O)(=O)CCc1ccccc1CN1CCN(C(=O)CCl)CC1` [MIH-UNI-e573136b-5, NS(CCc1c(CN(CC2)CCN2C(CCl)=O)cccc1)(=O)=O], the pIC50 in data set [1] (setting [3]) was 5.57. In the case of `COc1ccc2c(c1)CN(C(=O)CCl)C(c1ccccc1)C2` (centres unmarked) [NAU-LAT-64f4b287-4, COc1cc(CN(C(C2)c3ccccc3)C(CCl)=O)c2cc1], the pIC50 in data set [1] (setting [3]) was 5.43.

For the compound `Cc1cc(Cl)cc(CC2CCN(C(=O)CCl)CC2)c1` [NIR-THE-0d6461ce-8, Cc1cc(Cl)cc(CC(CC2)CCN2C(CCl)=O)c1], the negative logarithm of the IC50 (pIC50) in data set [1] (setting [3]) was 5.45. Turning to `N#Cc1cccc(C2CN(C(=O)CCl)Cc3ccccc32)c1` (centres unmarked) [NIR-THE-c331be7a-2, N#Cc1cccc(C(CN(C2)C(CCl)=O)c3c2cccc3)c1], in data set [1] (setting [3]), the pIC50 was 5.93. For the compound `Cc1cccc(C2CN(C(=O)CCl)Cc3ccccc32)c1` (centres unmarked) [NIR-THE-c331be7a-6, Cc1cccc(C(CN(C2)C(CCl)=O)c3c2cccc3)c1], the pIC50 in data set [1] (setting [3]) was 5.70.

For `O=C(CCl)N1CCN(Cc2cc(Cl)cc(Cl)c2)CC1` [PAU-UNI-8cdd41c7-1, O=C(CCl)N1CCN(Cc2cc(Cl)cc(Cl)c2)CC1], the pIC50 in data set [1] (setting [3]) was 5.72. As for `O=C(CCl)N1CCN(C(c2ccccc2)c2ccccc2)CC1` [SIM-SYN-f15aaa3a-1, O=C(CCl)N(CC1)CCN1C(c1ccccc1)c1ccccc1], the pIC50 in data set [1] (setting [3]) was 5.70.

As for `Cc1cc(C(=O)CCl)c(C)n1CC1COc2ccccc2O1` (centres unmarked) [TAT-ENA-80bfd3e5-32, Cc1cc(C(CCl)=O)c(C)n1CC1Oc(cccc2)c2OC1], the pIC50 in data set [1] (setting [3]) is 5.55. Turning to `Cc1ccncc1NC(=O)Cc1cc(Cl)cc(OC2CC(=O)N2)c1` (centres unmarked) [TRY-UNI-2eddb1ff-7, Cc(ccnc1)c1NC(Cc1cc(Cl)cc(OC(C2)NC2=O)c1)=O], the pIC50 in data set [1] (setting [3]) is 5.44.
